The values below are quoted from earlier work in PMC5531494, “Target specificity, in vivo pharmacokinetics, and efficacy of the putative STAT3 inhibitor LY5 in osteosarcoma, Ewing's sarcoma, and rhabdomyosarcoma” (PLoS ONE, 2017).

The conditions of the series: earlier work of the authors; cited from earlier work.

`NS(=O)(=O)c1cccc2c1C(=O)c1cccc(O)c1C2=O` [LLL12]: the oral bioavailability entry is “poor oral bioavailability”.
